Measurements: patent US11944622B2 (Annapurna Bio, Inc., priority 2018, dated 2024)

Target: T1, APJ Receptor (Homo sapiens, UniProt P35414)
T1 sequence (P35414 1-380): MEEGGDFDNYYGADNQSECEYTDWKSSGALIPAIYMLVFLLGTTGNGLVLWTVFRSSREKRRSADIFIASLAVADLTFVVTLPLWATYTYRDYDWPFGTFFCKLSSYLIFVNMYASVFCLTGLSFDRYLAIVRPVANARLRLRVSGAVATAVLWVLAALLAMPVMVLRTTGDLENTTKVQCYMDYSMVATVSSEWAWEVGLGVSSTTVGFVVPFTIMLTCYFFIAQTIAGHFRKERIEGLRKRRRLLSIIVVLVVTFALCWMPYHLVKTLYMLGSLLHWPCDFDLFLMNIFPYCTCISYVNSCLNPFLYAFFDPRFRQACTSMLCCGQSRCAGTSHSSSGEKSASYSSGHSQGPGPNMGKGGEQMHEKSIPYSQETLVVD
Assay: APJ cAMP assay (DiscoverX enzyme fragment complementation; inhibition of forskolin-stimulated cAMP)
Assay type: cell-based
Settings: CHO-K1 cell line stably expressing the APJ Receptor; EC80 forskolin; 30 minutes at 37° C.; read-out: Potency Range (APJ cAMP EC50)
Text: Activation of APJ receptor is known to inhibit forskolin-stimulated cyclic AMP (cAMP) production in cells in a pertussis toxin-sensitive manner which indicates primary coupling to the GαI subunit of the G protein heterotrimeric complex. In addition to signaling through G protein and inhibition of cAMP, APJ receptor activation also results in β-arrestin recruitment, receptor internalization and activation of extracellular-regulated kinases (ERKs).
In order to optimize functional activity directed toward Gi coupling we utilized a CHO-K 1 cell line developed by DiscoverX stably expressing the APJ Receptor. Cells expressing APJR receptor were plated in a 384-well microtiter plates and incubated overnight at 37° C. with 5% CO2 to allow the cells to attach and grow. Media was then aspirated from the cells and replaced with 15 uL 2:1 Hanks Balanced Salt Solution (HBSS)/10 mM Hepes:cAMP XS+Ab reagent. Five microliters (5 uL) of previously generated compound sample stocks at 4× final concentration in assay buffer containing 4× EC80 forskolin were then added to the cells and allowed to incubate at 37° C. for 30 minutes.
After incubation the assay signal was generated using a technology termed enzyme fragment complementation (EFC). In EFC the enzyme B-galactosidase is split into two complementary portions (EA and ED). The fragment ED is fused to cAMP and in the assay format competes with endogenous cAMP for binding to a cAMP specific antibody. Activated B-Gal is formed when exogenous EA fragment binds to free ED-cAMP (not bound to cAMP specific antibody). Activated enzyme levels are detected through conversion of B-gal chemiluminescent substrate which generates a detectable luminescence signal and read on standard microtiter plate.
The methodology for detection of cAMP using EFC requires incubation with 20 uL of cAMP XS+ED/CL lysis cocktail for one hour followed by incubation with 20 uL cAMP XS+EA reagent for three hours at room temperature. Microplates were read following signal generation with a PerkinElmer Envision instrument utilizing chemiluminescent signal detection.
Compound activity was analyzed using CBIS data analysis suite (ChemInnovation, CA). Percentage activity was calculated using the following formula: % Activity=100%×(1−(mean RLU of test sample−mean RLU of Max control)/(mean RLU of vehicle control−mean RLU of Max control))

Structure (SMILES): CCOc1cccc(-c2nc3ncc(NS(=O)(=O)[C@H]4CC[C@@H](O)CC4)nc3n2-c2c(OC)cccc2OC)n1 [Example 40, cis-N-(1-(2,6-dimethoxyphenyl)-2-(6-ethoxypyridin-2-yl)-1H-imidazo[4,5-b]pyrazin-6-yl)-4-hydroxycyclohexane-1-sulfonamide]
- EC50: 1 to 100 nM

Structure (SMILES): CCOc1cccc(-c2nc3ncc(NS(=O)(=O)c4ncccn4)nc3n2-c2c(OC)cccc2OC)n1 [Example 41, N-(1-(2,6-dimethoxyphenyl)-2-(6-ethoxypyridin-2-yl)-1H-imidazo[4,5-b]pyrazin-6-yl)pyrimidine-2-sulfonamide]
- EC50: 1 to 100 nM

Structure (SMILES): CCOc1cccc(-c2nc3ncc(NS(=O)(=O)N4CCC(O)CC4)nc3n2-c2c(OC)cccc2OC)n1 [Example 42, N-(1-(2,6-dimethoxyphenyl)-2-(6-ethoxypyridin-2-yl)-1H-imidazo[4,5-b]pyrazin-6-yl)-4-hydroxypiperidine-1-sulfonamide]
- EC50: 1 to 100 nM

Structure (SMILES): CCOc1cccc(-c2nc3nc(NS(C)(=O)=O)cnc3n2-c2c(OC)cccc2OC)n1 [Example 43, N-(1-(2,6-dimethoxyphenyl)-2-(6-ethoxypyridin-2-yl)-1H-imidazo[4,5-b]pyrazin-5-yl)methanesulfonamide]
- EC50: 1 to 100 nM

Structure (SMILES): CCOc1cccc(-c2nc3nc(NS(=O)(=O)CCC4CC4)cnc3n2-c2c(OC)cccc2OC)n1 [Example 44]
- EC50: < 1 nM

Structure (SMILES): CCOc1cccc(-c2nc3nc(NS(=O)(=O)CC4CC4)cnc3n2-c2c(OC)cccc2OC)n1 [Example 45, 1-cyclopropyl-N-(1-(2,6-dimethoxyphenyl)-2-(6-ethoxypyridin-2-yl)-1H-imidazo[4,5-b]pyrazin-5-yl)methanesulfonamide]
- EC50: < 1 nM

Structure (SMILES): CCOc1cccc(-c2nc3nc(NCc4ccc(OC)cc4)cnc3n2-c2c(OC)cccc2OC)n1 [Example 46, 1-(2,6-dimethoxyphenyl)-2-(6-ethoxypyridin-2-yl)-N-(4-methoxybenzyl)-1H-imidazo[4,5-b]pyrazin-5-amine]
- EC50: < 1 nM

Structure (SMILES): CCOc1cccc(-c2nc3ncc(O)nc3n2-c2c(OC)cccc2C(F)(F)F)n1 [Example 47, 2-(6-ethoxypyridin-2-yl)-1-(2-methoxy-6-(trifluoromethyl)phenyl)-1H-imidazo[4,5-b]pyrazin-6-ol]
- EC50: 100 to 10000 nM

Structure (SMILES): CCOc1cccc(-c2nc3ncc(NS(C)(=O)=O)nc3n2-c2c(OC)cccc2C(F)(F)F)n1 [Example 48, N-(2-(6-ethoxypyridin-2-yl)-1-(2-methoxy-6-(trifluoromethyl)phenyl)-1H-imidazo[4,5-b]pyrazin-6-yl)methanesulfonamide]
- EC50: 1 to 100 nM

Structure (SMILES): CCOc1cccc(-c2nc3ncc(NS(C)(=O)=O)nc3n2-c2ncccc2OC)n1 [Example 49, N-(2-(6-ethoxypyridin-2-yl)-1-(3-methoxypyridin-2-yl)-1H-imidazo[4,5-b]pyrazin-6-yl)methanesulfonamide]
- EC50: 100 to 10000 nM

Structure (SMILES): CCOc1cccc(-c2nc3ncc(NS(C)(=O)=O)nc3n2-c2c(F)cccc2OC)n1 [Example 50]
- EC50: 1 to 100 nM

Structure (SMILES): COc1cccc(-c2nc3ncc(NS(C)(=O)=O)nc3n2-c2c(OC)cccc2OC)n1 [Example 51, N-(1-(2,6-dimethoxyphenyl)-2-(6-methoxypyridin-2-yl)-1H-imidazo[4,5-b]pyrazin-6-yl)methanesulfonamide]
- EC50: 1 to 100 nM

Structure (SMILES): COc1cccc(-c2nc3ncc(NS(=O)(=O)c4ccccn4)nc3n2-c2c(OC)cccc2OC)n1 [Example 52, N-(1-(2,6-dimethoxyphenyl)-2-(6-methoxypyridin-2-yl)-1H-imidazo[4,5-b]pyrazin-6-yl)pyridine-2-sulfonamide]
- EC50: 1 to 100 nM

Structure (SMILES): COc1cccc(-c2nc3ncc(NS(=O)(=O)c4ncccn4)nc3n2-c2c(OC)cccc2OC)n1 [Example 53, N-(1-(2,6-dimethoxyphenyl)-2-(6-methoxypyridin-2-yl)-1H-imidazo[4,5-b]pyrazin-6-yl)pyrimidine-2-sulfonamide]
- EC50: 1 to 100 nM

Structure (SMILES): COc1cccc(OC)c1-n1c(-c2cccc(OC3CC3)n2)nc2ncc(NS(C)(=O)=O)nc21 [Example 54, N-(2-(6-cyclopropoxypyridin-2-yl)-1-(2,6-dimethoxyphenyl)-1H-imidazo[4,5-b]pyrazin-6-yl)methanesulfonamide]
- EC50: 1 to 100 nM

Structure (SMILES): COc1cccc(OC)c1-n1c(-c2cccc(OCC(F)(F)F)n2)nc2ncc(NS(C)(=O)=O)nc21 [Example 55, N-(1-(2,6-dimethoxyphenyl)-2-(6-(trifluoroethoxy)pyridin-2-yl)-1H-imidazo[4,5-b]pyrazin-6-yl)methanesulfonamide]
- EC50: 1 to 100 nM

Structure (SMILES): COc1cccc(OC)c1-n1c(-c2cccc(OC(F)(F)F)n2)nc2ncc(NS(C)(=O)=O)nc21 [Example 56, N-(1-(2,6-dimethoxyphenyl)-2-(6-(trifluoromethoxy)pyridin-2-yl)-1H-imidazo[4,5-b]pyrazin-6-yl)methanesulfonamide]
- EC50: 100 to 10000 nM

Structure (SMILES): CCOCc1nc2ncc(NS(=O)(=O)c3ccccc3)nc2n1-c1c(OC)cccc1OC [Example 57, N-(1-(2,6-dimethoxyphenyl)-2-(ethoxymethyl)-1H-imidazo[4,5-b]pyrazin-6-yl)benzenesulfonamide]
- EC50: 100 to 10000 nM

Structure (SMILES): CCOc1cccc(-c2nc3ncc(NS(C)(=O)=O)nc3n2C(CC)CC)n1 [Example 58, N-(2-(6-ethoxypyridin-2-yl)-1-(pentan-3-yl)-1H-imidazo[4,5-b]pyrazin-6-yl)methanesulfonamide]
- EC50: 1 to 100 nM

Structure (SMILES): CCOc1cccc(-c2nc3ncc(NS(C)(=O)=O)nc3n2C(C)C)n1 [Example 59, N-(2-(6-ethoxypyridin-2-yl)-1-isopropyl-II-1-imidazo[4,5-b]pyrazin-6-yl)methanesulfonamide]
- EC50: 100 to 10000 nM

Structure (SMILES): CCOc1cccc(-c2nc3ncc(NS(=O)(=O)CCC(C)(C)O)nc3n2-c2c(OC)cccc2OC)n1 [Example 60, N-(1-(2,6-dimethoxyphenyl)-2-(6-ethoxypyridin-2-yl)-1H-imidazo[4,5-b]pyrazin-6-yl)-3-hydroxy-3-methylbutane-1-sulfonamide]
- EC50: 1 to 100 nM

Structure (SMILES): CCOc1cccc(-c2nc3ncc(NS(=O)(=O)CC4(O)CC4)nc3n2-c2c(OC)cccc2OC)n1 [Example 61, N-(1-(2,6-dimethoxyphenyl)-2-(6-ethoxypyridin-2-yl)-1H-imidazo[4,5-b]pyrazin-6-yl)-1-(1-hydroxycyclopropyl)methanesulfonamide]
- EC50: 1 to 100 nM

Structure (SMILES): CCOc1cccc(-c2nc3nc(NS(=O)(=O)CC4(O)CC4)cnc3n2-c2c(OC)cccc2OC)n1 [Example 62, N-(1-(2,6-dimethoxyphenyl)-2-(6-ethoxypyridin-2-yl)-1H-imidazo[4,5-b]pyrazin-5-yl)-1-(1-hydroxycyclopropyl)methanesulfonamide]
- EC50: 1 to 100 nM

Structure (SMILES): CCOc1cccc(-c2nc3ccc(NS(C)(=O)=O)nc3n2-c2c(OC)cccc2OC)n1 [Example 63, N-(3-(2,6-dimethoxyphenyl)-2-(6-ethoxypyridin-2-yl)-3H-imidazo[4,5-b]pyridin-5-yl)methanesulfonamide]
- EC50: 1 to 100 nM

Structure (SMILES): CCOc1cccc(-c2nc3nc(Cl)c(NS(C)(=O)=O)nc3n2-c2c(OC)cccc2OC)n1 [Example 64, N-(5-chloro-1-(2,6-dimethoxyphenyl)-2-(6-ethoxypyridin-2-yl)-1H-imidazo[4,5-b]pyrazin-6-yl)methanesulfonamide]
- EC50: 1 to 100 nM

Structure (SMILES): CCOc1cccc(-c2nc3nc(CC4CC4)c(NS(C)(=O)=O)nc3n2-c2c(OC)cccc2OC)n1 [Example 65, N-(5-(cyclopropylmethyl)-1-(2,6-dimethoxyphenyl)-2-(6-ethoxypyridin-2-yl)-1H-imidazo[4,5-b]pyrazin-6-yl)methanesulfonamide]
- EC50: < 1 nM
